Structures are written as SMILES.

The test system of this experiment is trehalose content of C. neoformans. As to the kind of experiment: Trehalose measurement (colorimetric glucose assay after trehalase). The format is cell-based. To be noted: 37°C, sublethal dose (0.5 mM 4456dh), P < 0.05; dose-dependent. The method, then:
Fig 5 4456dh treatment results in reduced trehalose accumulation and a decrease in Tps1-dependent virulence factors. Trehalose accumulation measurements for C. albicans (A) and C. neoformans (B) cultured at indicated temperatures in the absence or presence of 0.5 mM 4456dh. Trehalose was measured using a colorimetric glucose assay after treatment of cultures with trehalase. Statistical comparisons were done with a one-way analysis of variance (ANOVA) analysis followed by a post hoc Tukey’s test. Error bars represent SE. (C) C. albicans WT strain SC5314 cells were treated with 0.5 mM, 1.0 mM, and 5 mM 4456dh. […] Cells were harvested, stained in India Ink, and analyzed using differential interference contrast imaging. […]
124 technical replicates. Growth, as determined by a reading of absorbance at 600 nm, was
125 normalized to untreated controls and was corrected for the absorbance of 4456dh in the YPD […]
129 overnight cultures was quantified by measuring the OD600 and corrected for the background
130 absorbance of the medium. Antifungal potency for 4456dh was assessed by minimum inhibitory […]
137 replicates. Growth, as determined by a reading of absorbance at 600 nm, was normalized to
138 untreated controls and was corrected for the absorbance of 4456dh in the YPD medium. […]
139 minimum inhibitory concentration causing 80% growth reduction, or MIC80, was determined based […]

As to `Cn1cc(-c2csc(NC(=O)Cc3ccccn3)n2)cn1` [Compound 4456dh], the change in trehalose result is on record as “significant decrease in trehalose”.

Source of the values: article PMC12505902, “Inhibitors of trehalose-6-phosphate synthase activity in fungal pathogens compromise thermal tolerance pathways” (mBio, 2025).
